The source of these data is ChEMBL document CHEMBL5465560, “Selectivity Literature for EUbOPEN Chemogenomic Library” (2024).

Assay [1] has as its target T1, Activin receptor type-1 (Homo sapiens) (UniProt Q04771).
T1 sequence (whole entry): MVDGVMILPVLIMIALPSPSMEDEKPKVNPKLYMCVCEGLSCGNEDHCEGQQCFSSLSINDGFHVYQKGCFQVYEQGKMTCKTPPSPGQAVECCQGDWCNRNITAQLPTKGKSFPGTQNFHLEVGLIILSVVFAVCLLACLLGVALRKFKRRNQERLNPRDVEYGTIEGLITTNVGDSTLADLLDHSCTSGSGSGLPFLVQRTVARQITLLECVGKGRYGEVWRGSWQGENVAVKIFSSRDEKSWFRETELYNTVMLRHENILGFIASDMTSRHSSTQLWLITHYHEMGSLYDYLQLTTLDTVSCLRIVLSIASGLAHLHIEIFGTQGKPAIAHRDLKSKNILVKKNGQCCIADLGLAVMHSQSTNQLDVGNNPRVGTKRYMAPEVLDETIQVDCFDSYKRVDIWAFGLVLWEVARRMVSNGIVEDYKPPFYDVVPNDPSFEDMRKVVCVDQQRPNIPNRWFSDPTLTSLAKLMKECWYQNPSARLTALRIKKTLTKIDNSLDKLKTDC
The conditions noted are these: at 10 µM.

Assay [2] deals with Serine/threonine-protein kinase VRK2 (Homo sapiens) (UniProt Q86Y07). The assay can be described thus: Selectivity interaction (KinomeScan (DiscoverX)) EUB0000666a VRK2. The conditions noted are these: at 10 µM.
For assay [3], the target named is cAMP-dependent protein kinase catalytic subunit alpha (Homo sapiens, UniProt P17612). As to the kind of experiment: Selectivity interaction (KinomeScan (DiscoverX)) EUB0000607a PRKACA. The conditions noted are these: at 10 µM.
Assay [4] addresses T2, Mitogen-activated protein kinase 14 (Homo sapiens, UniProt Q16539). The conditions noted are these: at 10 µM.
Assay [5] deals with T2, Mitogen-activated protein kinase 14. As to the kind of experiment: Selectivity interaction (Enyzmatic assay) EUB0000601a MAPK14.
Assay [6] deals with T3, Muscarinic acetylcholine receptor M1 (Homo sapiens) (UniProt P11229).
T3 sequence (whole entry): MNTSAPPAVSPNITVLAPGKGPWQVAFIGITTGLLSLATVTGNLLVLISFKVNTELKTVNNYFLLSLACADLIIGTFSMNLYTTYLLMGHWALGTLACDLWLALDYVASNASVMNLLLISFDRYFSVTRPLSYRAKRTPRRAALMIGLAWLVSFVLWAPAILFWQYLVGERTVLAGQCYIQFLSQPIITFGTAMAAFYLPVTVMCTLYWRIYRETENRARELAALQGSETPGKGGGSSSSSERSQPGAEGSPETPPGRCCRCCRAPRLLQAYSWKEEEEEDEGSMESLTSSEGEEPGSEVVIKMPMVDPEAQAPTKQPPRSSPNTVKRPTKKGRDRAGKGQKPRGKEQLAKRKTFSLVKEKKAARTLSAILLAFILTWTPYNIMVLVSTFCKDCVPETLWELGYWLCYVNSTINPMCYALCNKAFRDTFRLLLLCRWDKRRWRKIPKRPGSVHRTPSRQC
As to the kind of experiment: Selectivity interaction (Safety Panel 44tm (Eurofins)) EUB0000162b CHRM1. The conditions noted are these: at 10 µM.

For assay [7], the target named is Casein kinase I isoform alpha (Homo sapiens, UniProt P48729). As to the kind of experiment: Selectivity interaction (ProQinase) EUB0000171b CSNK1A1.
For assay [8], the target named is Wee1-like protein kinase 2 (Homo sapiens) (UniProt P0C1S8). As to the kind of experiment: Selectivity interaction (Ambit KINOMEscan and KiNATiv profiling in Jurkat cells) EUB0000090b WEE2. Format: cell-based. The conditions noted are these: at 1 µM.
Assay [9] concerns the target Non-receptor tyrosine-protein kinase TYK2 (Homo sapiens, UniProt P29597). The assay can be described thus: Selectivity interaction (Ambit KINOMEscan and KiNATiv profiling in Jurkat cells) EUB0000090b TYK2. Format: cell-based. The conditions noted are these: at 1 µM.
In assay [10] the target is T4, Cytoplasmic tyrosine-protein kinase BMX (Homo sapiens) (UniProt P51813).
T4 sequence (whole entry): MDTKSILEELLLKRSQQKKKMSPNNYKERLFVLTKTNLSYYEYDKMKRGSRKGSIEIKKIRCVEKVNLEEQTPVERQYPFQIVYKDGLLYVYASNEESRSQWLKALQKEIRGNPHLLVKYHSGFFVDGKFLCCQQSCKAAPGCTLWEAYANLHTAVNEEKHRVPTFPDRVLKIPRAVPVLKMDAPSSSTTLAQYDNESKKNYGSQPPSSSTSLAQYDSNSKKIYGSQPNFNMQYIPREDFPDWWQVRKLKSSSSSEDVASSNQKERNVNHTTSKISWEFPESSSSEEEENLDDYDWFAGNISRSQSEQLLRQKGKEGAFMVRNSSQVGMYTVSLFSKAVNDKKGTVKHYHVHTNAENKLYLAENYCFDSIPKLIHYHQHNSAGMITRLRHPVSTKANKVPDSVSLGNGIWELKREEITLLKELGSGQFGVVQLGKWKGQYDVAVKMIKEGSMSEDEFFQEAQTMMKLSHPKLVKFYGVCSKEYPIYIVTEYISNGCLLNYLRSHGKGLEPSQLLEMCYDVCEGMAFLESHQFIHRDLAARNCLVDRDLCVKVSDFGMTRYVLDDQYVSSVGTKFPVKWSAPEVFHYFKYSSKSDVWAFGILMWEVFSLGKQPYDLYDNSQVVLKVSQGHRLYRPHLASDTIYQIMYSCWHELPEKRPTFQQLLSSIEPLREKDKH
As to the kind of experiment: Selectivity interaction (KinomeScan (DiscoverX)) EUB0001049a BMX. The conditions noted are these: at 1 µM.

Assay [11] concerns the target Protein polybromo-1 (Homo sapiens) (UniProt Q86U86). The assay can be described thus: Selectivity interaction (Bromodomain panel (DSF asssay)) EUB0000270b PBRM1.
Assay [12] concerns the target T5, cAMP-dependent protein kinase catalytic subunit PRKX (Homo sapiens) (UniProt P51817).
T5 sequence (whole entry): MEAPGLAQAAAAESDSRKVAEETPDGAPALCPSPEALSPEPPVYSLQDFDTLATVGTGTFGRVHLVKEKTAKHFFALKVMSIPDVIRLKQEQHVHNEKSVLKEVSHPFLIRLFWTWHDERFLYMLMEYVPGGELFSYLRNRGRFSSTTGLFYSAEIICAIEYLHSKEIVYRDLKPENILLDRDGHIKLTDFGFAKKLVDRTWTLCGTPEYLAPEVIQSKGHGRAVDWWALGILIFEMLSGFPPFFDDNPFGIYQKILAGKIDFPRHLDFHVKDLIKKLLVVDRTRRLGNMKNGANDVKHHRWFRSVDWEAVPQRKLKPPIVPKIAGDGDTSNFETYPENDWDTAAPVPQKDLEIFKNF
As to the kind of experiment: Selectivity interaction (KinomeScan (DiscoverX)) EUB0001079a PRKX. The conditions noted are these: at 1 µM.

T2 sequence (Q16539 whole entry): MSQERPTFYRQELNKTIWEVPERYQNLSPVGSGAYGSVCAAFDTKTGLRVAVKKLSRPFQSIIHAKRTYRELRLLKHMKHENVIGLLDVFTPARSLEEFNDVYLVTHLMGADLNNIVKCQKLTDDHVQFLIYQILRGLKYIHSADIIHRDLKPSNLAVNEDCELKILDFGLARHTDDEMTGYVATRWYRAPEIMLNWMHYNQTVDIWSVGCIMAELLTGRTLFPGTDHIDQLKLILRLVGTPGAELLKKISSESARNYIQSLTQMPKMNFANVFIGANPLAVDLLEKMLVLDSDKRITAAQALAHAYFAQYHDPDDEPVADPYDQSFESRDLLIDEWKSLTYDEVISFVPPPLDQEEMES
Casein kinase I isoform alpha, sequence (P48729 2-337 limits assumed): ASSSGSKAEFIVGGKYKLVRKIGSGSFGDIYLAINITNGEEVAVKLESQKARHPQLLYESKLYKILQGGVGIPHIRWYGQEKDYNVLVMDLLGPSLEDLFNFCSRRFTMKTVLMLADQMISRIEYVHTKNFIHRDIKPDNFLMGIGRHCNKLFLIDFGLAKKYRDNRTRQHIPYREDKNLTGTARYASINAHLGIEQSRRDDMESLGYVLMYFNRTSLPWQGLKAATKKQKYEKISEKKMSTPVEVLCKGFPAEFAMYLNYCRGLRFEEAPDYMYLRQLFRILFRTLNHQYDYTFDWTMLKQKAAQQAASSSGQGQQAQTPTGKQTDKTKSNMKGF
Non-receptor tyrosine-protein kinase TYK2, sequence (P29597 whole entry): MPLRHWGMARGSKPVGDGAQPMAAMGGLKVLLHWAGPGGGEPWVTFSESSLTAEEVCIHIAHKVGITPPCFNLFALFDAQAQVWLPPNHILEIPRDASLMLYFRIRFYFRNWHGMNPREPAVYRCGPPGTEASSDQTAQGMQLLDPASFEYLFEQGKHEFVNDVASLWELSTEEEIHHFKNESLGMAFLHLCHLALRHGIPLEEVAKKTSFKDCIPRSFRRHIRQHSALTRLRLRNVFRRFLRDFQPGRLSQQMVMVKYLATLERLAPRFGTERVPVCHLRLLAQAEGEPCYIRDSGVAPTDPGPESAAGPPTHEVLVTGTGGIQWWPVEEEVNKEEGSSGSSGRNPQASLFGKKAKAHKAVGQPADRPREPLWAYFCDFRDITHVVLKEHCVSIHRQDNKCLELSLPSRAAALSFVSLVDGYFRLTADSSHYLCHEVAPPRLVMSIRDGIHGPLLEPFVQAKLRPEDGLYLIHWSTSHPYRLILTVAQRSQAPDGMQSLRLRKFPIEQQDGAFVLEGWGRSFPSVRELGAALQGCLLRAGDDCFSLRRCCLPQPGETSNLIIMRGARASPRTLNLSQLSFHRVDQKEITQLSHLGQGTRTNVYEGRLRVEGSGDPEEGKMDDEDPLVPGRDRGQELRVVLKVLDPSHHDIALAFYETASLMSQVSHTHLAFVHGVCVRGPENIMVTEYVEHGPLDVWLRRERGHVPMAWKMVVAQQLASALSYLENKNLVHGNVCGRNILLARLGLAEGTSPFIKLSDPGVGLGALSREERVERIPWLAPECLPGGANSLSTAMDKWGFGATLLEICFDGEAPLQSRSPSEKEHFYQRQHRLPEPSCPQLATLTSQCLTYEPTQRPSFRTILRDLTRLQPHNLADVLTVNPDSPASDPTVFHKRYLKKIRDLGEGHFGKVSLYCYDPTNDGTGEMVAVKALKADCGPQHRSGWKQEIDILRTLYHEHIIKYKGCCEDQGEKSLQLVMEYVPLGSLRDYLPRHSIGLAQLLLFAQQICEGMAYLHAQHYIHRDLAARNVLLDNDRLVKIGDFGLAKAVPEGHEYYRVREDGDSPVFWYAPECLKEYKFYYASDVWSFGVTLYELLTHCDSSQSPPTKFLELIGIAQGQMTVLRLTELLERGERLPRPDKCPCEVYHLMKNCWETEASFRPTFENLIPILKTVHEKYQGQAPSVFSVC
Serine/threonine-protein kinase VRK2 (Homo sapiens), sequence (Q86Y07 whole entry): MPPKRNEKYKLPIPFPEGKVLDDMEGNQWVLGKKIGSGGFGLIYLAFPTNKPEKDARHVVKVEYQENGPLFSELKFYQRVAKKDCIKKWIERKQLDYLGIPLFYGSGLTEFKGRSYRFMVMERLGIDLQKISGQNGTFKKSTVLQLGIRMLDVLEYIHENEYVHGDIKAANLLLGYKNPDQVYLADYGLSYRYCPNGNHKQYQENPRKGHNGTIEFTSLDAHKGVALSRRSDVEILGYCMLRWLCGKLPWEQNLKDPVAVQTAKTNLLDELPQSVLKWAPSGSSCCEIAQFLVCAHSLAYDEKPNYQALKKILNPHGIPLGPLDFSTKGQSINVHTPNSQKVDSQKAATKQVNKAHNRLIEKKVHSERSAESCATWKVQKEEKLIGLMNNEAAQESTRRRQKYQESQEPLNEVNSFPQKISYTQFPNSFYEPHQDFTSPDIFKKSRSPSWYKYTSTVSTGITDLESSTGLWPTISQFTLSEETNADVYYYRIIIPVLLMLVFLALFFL
Wee1-like protein kinase 2 (Homo sapiens), sequence (P0C1S8 whole entry, looked up): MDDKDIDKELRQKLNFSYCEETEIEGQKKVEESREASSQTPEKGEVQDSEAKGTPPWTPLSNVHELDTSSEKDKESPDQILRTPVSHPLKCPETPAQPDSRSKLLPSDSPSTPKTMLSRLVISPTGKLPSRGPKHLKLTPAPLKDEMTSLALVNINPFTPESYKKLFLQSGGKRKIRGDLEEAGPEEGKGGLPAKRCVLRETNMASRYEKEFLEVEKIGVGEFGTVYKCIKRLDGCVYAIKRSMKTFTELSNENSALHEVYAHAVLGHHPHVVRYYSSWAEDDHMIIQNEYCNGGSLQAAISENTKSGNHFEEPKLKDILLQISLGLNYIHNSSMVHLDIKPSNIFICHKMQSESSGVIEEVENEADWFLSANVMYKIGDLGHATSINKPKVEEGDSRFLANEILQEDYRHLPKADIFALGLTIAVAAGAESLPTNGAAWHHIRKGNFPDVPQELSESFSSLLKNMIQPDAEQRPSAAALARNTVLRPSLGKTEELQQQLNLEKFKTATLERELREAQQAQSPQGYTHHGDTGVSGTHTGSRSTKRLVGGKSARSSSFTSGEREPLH
Protein polybromo-1 (Homo sapiens), sequence (Q86U86 whole entry): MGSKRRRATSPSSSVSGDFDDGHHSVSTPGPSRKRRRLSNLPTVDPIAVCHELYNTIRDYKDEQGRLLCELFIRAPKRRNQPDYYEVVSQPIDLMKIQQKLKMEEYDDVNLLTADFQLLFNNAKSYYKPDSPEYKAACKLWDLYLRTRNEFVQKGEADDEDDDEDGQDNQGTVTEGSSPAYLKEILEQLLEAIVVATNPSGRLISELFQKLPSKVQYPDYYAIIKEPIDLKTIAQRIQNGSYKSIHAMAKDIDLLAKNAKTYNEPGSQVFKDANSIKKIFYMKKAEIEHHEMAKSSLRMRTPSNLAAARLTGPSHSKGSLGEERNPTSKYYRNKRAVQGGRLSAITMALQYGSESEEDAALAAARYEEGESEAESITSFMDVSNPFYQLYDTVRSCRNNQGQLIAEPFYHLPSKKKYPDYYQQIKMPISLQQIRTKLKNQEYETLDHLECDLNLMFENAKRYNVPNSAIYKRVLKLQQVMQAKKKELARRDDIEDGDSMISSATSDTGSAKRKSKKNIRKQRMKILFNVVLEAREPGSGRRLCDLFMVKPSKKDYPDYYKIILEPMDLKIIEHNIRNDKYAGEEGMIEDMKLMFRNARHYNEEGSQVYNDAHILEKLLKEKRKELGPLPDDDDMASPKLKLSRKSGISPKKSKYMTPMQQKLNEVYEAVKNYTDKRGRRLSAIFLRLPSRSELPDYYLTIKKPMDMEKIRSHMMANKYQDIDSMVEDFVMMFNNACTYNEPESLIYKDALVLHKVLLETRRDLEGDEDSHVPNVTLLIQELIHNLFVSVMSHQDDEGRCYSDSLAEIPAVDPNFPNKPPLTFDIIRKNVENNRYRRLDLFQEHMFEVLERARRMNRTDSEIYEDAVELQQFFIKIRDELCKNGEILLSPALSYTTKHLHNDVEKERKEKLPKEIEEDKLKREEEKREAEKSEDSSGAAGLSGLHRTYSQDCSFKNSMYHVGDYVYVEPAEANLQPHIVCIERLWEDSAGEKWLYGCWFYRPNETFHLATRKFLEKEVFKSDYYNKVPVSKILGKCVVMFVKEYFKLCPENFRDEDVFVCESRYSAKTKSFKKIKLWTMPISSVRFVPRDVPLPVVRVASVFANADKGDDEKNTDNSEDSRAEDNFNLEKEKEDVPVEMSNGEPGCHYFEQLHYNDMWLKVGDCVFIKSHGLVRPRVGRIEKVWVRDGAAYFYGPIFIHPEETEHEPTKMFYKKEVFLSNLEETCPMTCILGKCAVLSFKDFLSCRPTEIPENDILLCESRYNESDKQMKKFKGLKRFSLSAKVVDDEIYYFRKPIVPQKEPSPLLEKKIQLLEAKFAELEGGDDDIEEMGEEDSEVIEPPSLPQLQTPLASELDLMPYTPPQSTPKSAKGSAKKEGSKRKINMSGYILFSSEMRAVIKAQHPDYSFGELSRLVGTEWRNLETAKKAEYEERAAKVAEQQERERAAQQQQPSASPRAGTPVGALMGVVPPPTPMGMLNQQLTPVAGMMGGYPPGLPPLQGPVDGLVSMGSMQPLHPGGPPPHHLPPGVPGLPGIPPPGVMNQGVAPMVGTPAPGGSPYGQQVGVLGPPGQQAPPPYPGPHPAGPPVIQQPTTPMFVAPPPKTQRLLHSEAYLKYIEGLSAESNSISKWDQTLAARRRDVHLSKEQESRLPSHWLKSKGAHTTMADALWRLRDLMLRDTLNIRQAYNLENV

On to `CCN(CC)CCCCNc1ncc2cc(-c3cc(OC)cc(OC)c3)c(NC(=O)NC(C)(C)C)nc2n1`, for which the % of control in assay [1] was determined as 100%.
As to `O=C(NOC[C@H](O)CO)c1ccc(F)c(F)c1Nc1ccc(I)cc1F`, the % of control in assay [2] worked out at 100%.
Turning to `CNC(=O)Nc1ccc(-c2nc(N3CC4CCC(C3)O4)c3cnn(C4CCC5(CC4)OCCO5)c3n2)cc1`, in assay [3], the % of control worked out at 75%.
The molecule `Cc1cc([C@@H](C)Nc2ccccc2C(=O)O)c2nc(N3CCOCC3)cc(=O)n2c1` [AZD-6482] showed a % of control in assay [4] of 97%.
For the molecule `CCc1cc(Nc2nccc(-c3c(-c4ccc(OC)c(C(=O)Nc5c(F)cccc5F)c4)nc4ccccn34)n2)c(OC)cc1N1CCC(N2CCN(S(C)(=O)=O)CC2)CC1`, the IC50 (usually the concentration needed to halve the response being measured) in [5] is greater than 10 µM.
Consider `CN(C)C(=O)Cn1cc(-c2ccc(-c3cncc4ccccc34)cc2)cn1`, for which, in [6], the % of control came to 87%.
Regarding `C=CC(=O)Nc1cccc(C(=O)Nc2ccc(Nc3cc(-c4[nH]c(SC)nc4C)ccn3)cc2)c1`, the % of control in [7] (at 1 µM) came to 70%; in assay [7] (at 5 µM), 38%.
Turning to `CN(C)C/C=C/C(=O)Nc1ccc(C(=O)N2CCCC(Nc3ncc(Cl)c(-c4c[nH]c5ccccc45)n3)C2)cc1` (stereo not drawn), the % of control worked out at 97% in assay [8] and 94% in [9].
In turn, `COc1cc(Nc2nc(C)cc(-c3cnn4nc(OC)ccc34)n2)cc(C(F)(F)F)c1` showed a % of control in assay [10] of 87%.
As for `Cc1cc(CN)cc(C)c1-c1ncn(C)c1-c1cncn1C`, the dTM in assay [11] is -2.3 K.
`Nc1cnc(N2CCc3cc(S(=O)(=O)Nc4c(F)cc(Cl)cc4F)cc(N4CCCC4=O)c32)nc1` [TP-020n] had a % of control in assay [12] of 99%.
